The test deals with T1, SARS-CoV-2 main protease (Mpro, 3CLpro) (Severe acute respiratory syndrome coronavirus 2, UniProt P0DTD1).
T1 construct: gene rep
The test can be described thus: FRET peptide cleavage assay. It is filed as biochemical. The source says:
FRET peptide cleavage assay on SARS-CoV-2 main protease (Mpro, 3CLpro)

Drawing on paper PMC9822074, “Triterpenic Acid Amides as Potential Inhibitors of the SARS-CoV-2 Main Protease” (Molecules, 2022), this text covers IC50 for four molecules.

In the case of `CCO[C@@H](Cc1ccc(OCCc2ccc(OCCNC(=O)[C@]34CC[C@@H](C)[C@H](C)[C@H]3C3=CC[C@@H]5[C@@]6(C)CC[C@H](O)C(C)(C)[C@@H]6CC[C@@]5(C)[C@]3(C)CC4)cc2)cc1)C(=O)O` [1d], the 50% inhibitory concentration (IC50) – broadly, the midpoint of a concentration-inhibition curve – is 100 ± 5 µM.

On to `CCO[C@@H](Cc1ccc(OCCc2ccc(OCCNC(=O)[C@]34CC[C@@H](C)[C@H](C)[C@H]3C3=CC[C@@H]5[C@@]6(C)C[C@@H](O)[C@H](O)C(C)(C)[C@@H]6CC[C@@]5(C)[C@]3(C)CC4)cc2)cc1)C(=O)O` [1e], for which the IC50 is 25 ± 3 µM.

For `C=C(C)[C@@H]1CC[C@]2(C(=O)NCCOc3ccc(CCOc4ccc(C[C@H](OCC)C(=O)O)cc4)cc3)CC[C@]3(C)[C@H](CC[C@@H]4[C@@]5(C)CCC(=O)C(C)(C)[C@@H]5CC[C@]43C)[C@@H]12` [1a], the IC50 is 100 ± 5 µM. Compared with the last molecule, the IC50 is about 4-fold higher.

`CCO[C@@H](Cc1ccc(OCCc2ccc(OCCNC(=O)[C@]34CC[C@@H](C(C)C)[C@@H]3[C@H]3CC[C@@H]5[C@@]6(C)CCC(=O)C(C)(C)[C@@H]6CC[C@@]5(C)[C@]3(C)CC4)cc2)cc1)C(=O)O` [1b]: the midpoint of inhibition, the IC50, lay at 100 ± 5 µM.
